Reference: the supplement of paper PMC10307832

Legend:
Experiment in all cases: relative viability (nuclei count vs DMSO), 5 days (fraction); higher = more cells survive
Doxorubicin + Crizotinib = compound: COc1cccc2c1C(=O)c1c(O)c3c(c(O)c1C2=O)C[C@@](O)(C(=O)CO)C[C@@H]3O[C@H]1C[C@H](N)[C@H](O)[C@H](C)O1 [Doxorubicin] + C[C@@H](Oc1cc(-c2cnn(C3CCNCC3)c2)cnc1N)c1c(Cl)ccc(F)c1Cl [Crizotinib] (partner 1 µM)
Outline: (§1)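 One day after seeding in 1536-well plates, lung cancer cell lines were dosed by pin tool. Dosing was either single-drug or a fixed anchor-drug dose plus five library-drug doses (not always all listed) in √10 steps. After 5 days, nuclei were stained in one fix-and-stain step and counted on 4× images, and relative viability is the nuclei count of treated wells over that of vehicle wells, given as the median of duplicate plates.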

BAY61-3606 + Tozasertib = compound: COC1=C(C=C(C=C1)C2=CC3=NC=CN3C(=N2)NC4=C(C=CC=N4)C(=O)N)OC [BAY61-3606] + Cc1cc(Nc2cc(N3CCN(C)CC3)nc(Sc3ccc(NC(=O)C4CC4)cc3)n2)n[nH]1 [Tozasertib] (partner 0.1 µM)
Outline: as §1

Doxorubicin + Bortezomib = compound: COc1cccc2c1C(=O)c1c(O)c3c(c(O)c1C2=O)C[C@@](O)(C(=O)CO)C[C@@H]3O[C@H]1C[C@H](N)[C@H](O)[C@H](C)O1 [Doxorubicin] + CC(C)C[C@H](NC(=O)[C@H](Cc1ccccc1)NC(=O)c1cnccn1)B(O)O [Bortezomib] (partner 0.002 µM)
Outline: as §1

BAY61-3606 + Foretinib = compound: COC1=C(C=C(C=C1)C2=CC3=NC=CN3C(=N2)NC4=C(C=CC=N4)C(=O)N)OC [BAY61-3606] + COc1cc2c(Oc3ccc(NC(=O)C4(C(=O)Nc5ccc(F)cc5)CC4)cc3F)ccnc2cc1OCCCN1CCOCC1 [Foretinib] (partner 0.25 µM)
Outline: as §1

UMC-11
relative viability (Doxorubicin + Crizotinib; first compound 0.001 µM): 0.539
relative viability (Doxorubicin + Crizotinib; first compound 0.003162 µM): 0.66
relative viability (Doxorubicin + Crizotinib; first compound 0.01 µM): 0.648
relative viability (Doxorubicin + Crizotinib; first compound 0.03162 µM): 0.309
relative viability (Doxorubicin + Crizotinib; first compound 0.1 µM): 0.386
relative viability (BAY61-3606 + Tozasertib; first compound 0.02 µM): 0.2
relative viability (BAY61-3606 + Tozasertib; first compound 0.06325 µM): 0.208
relative viability (BAY61-3606 + Tozasertib; first compound 0.2 µM): 0.207
relative viability (BAY61-3606 + Tozasertib; first compound 0.6325 µM): 0.201
relative viability (BAY61-3606 + Tozasertib; first compound 2 µM): 0.192
relative viability (Doxorubicin + Bortezomib; first compound 0.001 µM): 0.667
relative viability (Doxorubicin + Bortezomib; first compound 0.003162 µM): 0.543
relative viability (Doxorubicin + Bortezomib; first compound 0.01 µM): 0.668
relative viability (Doxorubicin + Bortezomib; first compound 0.03162 µM): 0.379
relative viability (Doxorubicin + Bortezomib; first compound 0.1 µM): 0.436
relative viability (BAY61-3606 + Foretinib; first compound 0.02 µM): 1.23
relative viability (BAY61-3606 + Foretinib; first compound 0.06325 µM): 1.12
relative viability (BAY61-3606 + Foretinib; first compound 0.2 µM): 1.05
relative viability (BAY61-3606 + Foretinib; first compound 0.6325 µM): 1.15
relative viability (BAY61-3606 + Foretinib; first compound 2 µM): 1.02
